Target: T1, EBP (Homo sapiens, UniProt Q15125)
T1 construct: HEK293T cells were utilized as the source of EBP enzyme; endogenous in cells; host or cells: HEK293T
Assay: EBP Functional Assay (EBP immunoaffinity LC-MS assay)
Format: biochemical
Conditions: EBP enzyme from HEK293T cells; 30 min with inhibitor, then zymosterol-d5, 37° C., 4 h; percent conversion to dehydrolathosterol-d5 by LC-APCI MRM MS
Outline: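 HEK293T cells served as EBP source; enzyme preincubated 30 min with inhibitor dilutions, then zymosterol-d5 substrate added and incubated 4 h at 37° C. Sterols extracted and quantified by LC-APCI MRM MS; percent conversion to […] fit to 4-parameter logistic for IC50. Tasin-1 reference inhibitor.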

T1 sequence (Q15125 whole entry): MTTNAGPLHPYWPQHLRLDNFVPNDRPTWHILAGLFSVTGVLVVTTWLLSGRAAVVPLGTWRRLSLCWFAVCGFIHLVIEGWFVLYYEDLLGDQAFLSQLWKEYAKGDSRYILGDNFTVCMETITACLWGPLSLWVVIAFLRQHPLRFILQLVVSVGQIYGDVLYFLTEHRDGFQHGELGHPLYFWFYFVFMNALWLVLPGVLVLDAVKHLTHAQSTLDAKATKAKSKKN

Structure (SMILES) | IC50 [nM]
O=S(=O)(c1ccc(OC(F)F)cc1)N1CCOC2(CCN(C3CC4(COC4)C3)C2)C1 (racemic) [Example 25, 9-((4-(Difluoromethoxy)phenyl)sulfonyl)-2-(2-oxaspiro[3.3]heptan-6-yl)-6-oxa-2,9-diazaspiro[4.5]decane] | < 100
O=S(=O)(c1ccc(OC(F)F)cc1)N1CCO[C@]2(CCN(C3CC4(COC4)C3)C2)C1 (single isomer, unassigned) [Example 27] | 100 to 250
Cn1nc(C(F)(F)F)cc1S(=O)(=O)N1CC2(CN(CC3COC3)C2)C1 [Example 218, 2-((1-methyl-3-(trifluoromethyl)-1H-pyrazol-5-yl)sulfonyl)-6-(oxetan-3-ylmethyl)-2,6-diazaspiro[3.3]heptane] | 100 to 250
O=S(=O)(c1ccc(OC(F)F)cc1)N1[C@@H]2CC[C@H]1CC1(C2)CN(C2CCOCC2)C1 [Example 61, (1′R,5′S)-8′-((4-(Difluoromethoxy)phenyl)sulfonyl)-1-(tetrahydro-2H-pyran-4-yl)-8′-azaspiro[azetidine-3,3′-bicyclo[3.2.1]octane]] | 100 to 250
Cc1nc(C(F)(F)F)ccc1S(=O)(=O)N1CC2(CN(CC3CCOCC3)C2)C1 [Example 152] | < 100
CCc1nc(C(F)(F)F)ccc1S(=O)(=O)N1CC2(CN(C3CCOCC3)C2)C1 [Example 204, 2-((2-ethyl-6-(trifluoromethyl)pyridin-3-yl)sulfonyl)-6-(tetrahydro-2H-pyran-4-yl)-2,6-diazaspiro[3.3]heptane] | < 100
Cc1nc(C(F)(F)F)ccc1S(=O)(=O)N1CC2(CN(C(C)C3COC3)C2)C1 (single isomer, unassigned) [Example 158] | 250 to 4000
CC1(O)CCC(N2CC3(C2)CN(S(=O)(=O)c2ccc(C(F)(F)F)nc2C2CC2)C3)CC1 (stereo not shown) [Example 195, 4-(6-((2-cyclopropyl-6-(trifluoromethyl)pyridin-3-yl)sulfonyl)-2,6-diazaspiro[3.3]heptan-2-yl)-1-methylcyclohexan-1-ol] | < 100
Cc1ccc(S(=O)(=O)N2CC3(CN(C4CCOCC4)C3)C2)c(C)c1 [Example 44, 2-((2,4-Dimethylphenyl)sulfonyl)-6-(tetrahydro-2H-pyran-4-yl)-2,6-diazaspiro[3.3]heptane] | < 100
CC(C)(O)CN1CCC2(CC1)CN(S(=O)(=O)c1ccc(OC(F)F)cc1)CCO2 [Example 10, 1-(4-((4-(Difluoromethoxy)phenyl)sulfonyl)-1-oxa-4,9-diazaspiro[5.5]undecan-9-yl)-2-methylpropan-2-ol] | 250 to 4000
CCc1cc(C(F)(F)F)ncc1S(=O)(=O)N1CC2(CN(C3CCC(C)(O)CC3)C2)C1 (single isomer, unassigned) [Example 128, 4-(6-((4-ethyl-6-(trifluoromethyl)pyridin-3-yl)sulfonyl)-2,6-diazaspiro[3.3]heptan-2-yl)-1-methylcyclohexan-1-ol] | < 100
Cn1nc2c(c1S(=O)(=O)N1CC3(CN(C4CCOCC4)C3)C1)CCC2 [Example 169, 2-methyl-3-((6-(tetrahydro-2H-pyran-4-yl)-2,6-diazaspiro[3.3]heptan-2-yl)sulfonyl)-2,4,5,6-tetrahydrocyclopenta[c]pyrazole] | 250 to 4000
O=S(=O)(c1ccc(C(F)(F)F)nc1C(F)(F)F)N1CC2(CN(C3CCOCC3)C2)C1 [Example 109, 2-((2,6-bis(trifluoromethyl)pyridin-3-yl)sulfonyl)-6-(tetrahydro-2H-pyran-4-yl)-2,6-diazaspiro[3.3]heptane] | 250 to 4000
Cc1nc(C(C)(F)F)ccc1S(=O)(=O)N1CC2(CN(C(C)C3CCOC3)C2)C1 (stereo not shown) [Example 86] | < 100
O=S(=O)(c1ccc(OC(F)F)cc1F)N1CC2(CN(CC3CCOCC3)C2)C1 [Example 226, 2-((4-(difluoromethoxy)-2-fluorophenyl)sulfonyl)-6-((tetrahydro-2H-pyran-4-yl)methyl)-2,6-diazaspiro[3.3]heptane] | 250 to 4000
CCc1nc(C(F)F)ccc1S(=O)(=O)N1CC2(CN(C3CCOCC3)C2)C1 [Example 205, 2-((6-(difluoromethyl)-2-ethylpyridin-3-yl)sulfonyl)-6-(tetrahydro-2H-pyran-4-yl)-2,6-diazaspiro[3.3]heptane] | < 100
Cc1nc(C(C)(F)F)ccc1S(=O)(=O)N1CC2(CN(C(C)C3COC3)C2)C1 (stereo not shown) [Example 88] | 100 to 250
CCc1nc(C(F)F)ccc1S(=O)(=O)N1CC2(C1)CN([C@H]1CC[C@](C)(O)CC1)C2 [Example 207, (1r,4r)-4-(6-((6-(difluoromethyl)-2-ethylpyridin-3-yl)sulfonyl)-2,6-diazaspiro[3.3]heptan-2-yl)-1-methylcyclohexan-1-ol] | 250 to 4000
Cn1nc(C(F)(F)F)cc1S(=O)(=O)N1CC2(CN(C3CCOCC3)C2)C1 [Example 46, 2-((1-Methyl-3-(trifluoromethyl)-1H-pyrazol-5-yl)sulfonyl)-6-(tetrahydro-2H-pyran-4-yl)-2,6-diazaspiro[3.3]heptane] | 100 to 250
Cc1cc(C(F)(F)F)nc(C)c1S(=O)(=O)N1CC2(CN(CC3COC3)C2)C1 [Example 104] | 100 to 250

Structure (SMILES) | IC50 [nM]
O=S(=O)(c1cnc(C(F)(F)F)cc1C1CC1)N1CC2(CN(C3CC4(COC4)C3)C2)C1 [Example 121, 2-((4-cyclopropyl-6-(trifluoromethyl)pyridin-3-yl)sulfonyl)-6-(2-oxaspiro[3.3]heptan-6-yl)-2,6-diazaspiro[3.3]heptane] | 250 to 4000
Cc1nc(C(F)(F)F)ccc1S(=O)(=O)N1CC2(CN(C[C@H]3[C@H](C#N)C3(C)C)C2)C1 (racemic) [Example 174] | 100 to 250
COC(C)(C)CN1[C@@H]2CC[C@H]1CC1(C2)CN(S(=O)(=O)c2ccc(OC(F)F)cc2)C1 [Example 64, (1′R,5′S)-1-((4-(Difluoromethoxy)phenyl)sulfonyl)-8′-(2-methoxy-2-methylpropyl)-8′-azaspiro[azetidine-3,3′-bicyclo[3.2.1]octane]] | 250 to 4000
Cc1nc(C(C)(F)F)ccc1S(=O)(=O)N1CC2(CN(C3CCOCC3)C2)C1 [Example 79] | < 100
Cc1nc(C(C)(F)F)ccc1S(=O)(=O)N1CC2(CN(CC3(C)COC3)C2)C1 [Example 89] | < 100
COC1CCC(N2CC3(C2)CN(S(=O)(=O)c2ccc(C(F)F)nc2C2CC2)C3)CC1 (single isomer, unassigned) [Example 118, 2-((2-cyclopropyl-6-(difluoromethyl)pyridin-3-yl)sulfonyl)-6-(4-methoxycyclohexyl)-2,6-diazaspiro[3.3]heptane] | 100 to 250
Cc1ccc(S(=O)(=O)N2CC3(CN(C4CCOCC4)C3)C2)c(C(F)(F)F)n1 [Example 105, 2-((6-methyl-2-(trifluoromethyl)pyridin-3-yl)sulfonyl)-6-(tetrahydro-2H-pyran-4-yl)-2,6-diazaspiro[3.3]heptane] | 100 to 250
O=S(=O)(c1ccc(C(F)F)nc1C1CC1)N1CC2(CN(C3CCOCC3)C2)C1 [Example 116, 2-((2-cyclopropyl-6-(difluoromethyl)pyridin-3-yl)sulfonyl)-6-(tetrahydro-2H-pyran-4-yl)-2,6-diazaspiro[3.3]heptane] | < 100
COC(C)(C)CN1CCC2(CC1)CN(S(=O)(=O)c1ccc(OC(F)F)cc1)CCO2 [Example 11, 4-((4-(Difluoromethoxy)phenyl)sulfonyl)-9-(2-methoxy-2-methylpropyl)-1-oxa-4,9-diazaspiro[5.5]undecane] | 100 to 250
Cn1nc(C(F)(F)F)cc1S(=O)(=O)N1CCC2(CN(C3CCOCC3)C2)C1 [Example 60, 6-((1-methyl-3-(Trifluoromethyl)-1H-pyrazol-5-yl)sulfonyl)-2-(tetrahydro-2H-pyran-4-yl)-2,6-diazaspiro[3.4]octane] | < 100
Cc1cc(OC(F)(F)F)ccc1S(=O)(=O)N1CC2(CN(C3CCOCC3)C2)C1 [Example 50] | < 100
CC1(O)CCC(N2CC3(C2)CN(S(=O)(=O)c2ccc(C(F)(F)F)nc2C2CC2)C3)CC1 (stereo not shown) [Example 196, 4-(6-((2-cyclopropyl-6-(trifluoromethyl)pyridin-3-yl)sulfonyl)-2,6-diazaspiro[3.3]heptan-2-yl)-1-methylcyclohexan-1-ol] | 100 to 250
Cn1nc(C2CC2)cc1S(=O)(=O)N1CC2(CCN(C3CCOCC3)C2)C1 [Example 59] | 100 to 250
Cc1nc(C(F)(F)F)ccc1S(=O)(=O)N1CC2(CN(C(C)C3COC3)C2)C1 (single isomer, unassigned) [Example 159] | < 100
Cn1nc(C(F)(F)F)cc1S(=O)(=O)N1CC2(CN(CC3CCOC(C)(C)C3)C2)C1 (racemic) [Example 198, rac-2-((2,2-dimethyltetrahydro-2H-pyran-4-yl)methyl)-6-((1-methyl-3-(trifluoromethyl)-1H-pyrazol-5-yl)sulfonyl)-2,6-diazaspiro[3.3]heptane] | < 100
Cc1nc(Br)ccc1S(=O)(=O)N1CC2(CN(C3CCOCC3)C2)C1 [Example 67, 2-((6-bromo-2-methylpyridin-3-yl)sulfonyl)-6-(tetrahydro-2H-pyran-4-yl)-2,6-diazaspiro[3.3]heptane] | 250 to 4000
CCN1CC2(C1)CN(S(=O)(=O)c1ccc(C(F)(F)F)nc1C)C2 [Example 170] | 250 to 4000
Cc1nc(C(F)(F)F)ccc1S(=O)(=O)N1CCC2(CC1)CN(C1CCOCC1)C2 [Example 33, 7-((2-Methyl-6-(trifluoromethyl)pyridin-3-yl)sulfonyl)-2-(tetrahydro-2H-pyran-4-yl)-2,7-diazaspiro[3.5]nonane] | < 100
Cc1cc(C(F)(F)F)ncc1S(=O)(=O)N1CC2(CCN(C3CCOCC3)C2)C1 [Example 57] | 100 to 250
Cc1nc(C(F)(F)F)ccc1S(=O)(=O)N1CC2(CN(CC34CCOC(C)(C3)C4)C2)C1 [Example 74, 2-((1-methyl-2-oxabicyclo[3.1.1]heptan-5-yl)methyl)-6-((2-methyl-6-(trifluoromethyl)pyridin-3-yl)sulfonyl)-2,6-diazaspiro[3.3]heptane] | < 100

— US20250171463A1 (BIOGEN MA INC., priority 2022, published 2025)
